{
  "source": "patent US20200339544A1",
  "about": "(JOINT STOCK COMPANY \"BIOCAD\", priority 2017, published 2020)",
  "key": {"[1]": {"assay": "General cytotoxicity on HepG2 cells", "format": "cell-based", "details": "human; general cytotoxicity, HepG2 cells, 72 hours, average of several tests", "outline": "(§1)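 HepG2 cells seeded at 2*10^4 cells per well and compounds added in DMEM with 2% FBS for 72 h at 37 °C. Viability read with Alamar Blue and CC50 derived as for IC50. Therapeutic index taken as HepG2 CC50 over H1975 IC50.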"}, "[2]": {"tested_on": "HepG2 cells", "assay": "General cytotoxicity on HepG2 cells", "format": "cell-based", "details": "therapeutic index, CC50 HepG2 / IC50 H1975", "outline": "as §1"}, "[3]": {"tested_on": "A549 (lung adenocarcinoma, WT)", "assay": "Antiproliferative activity on A549 cells (Alamar Blue)", "format": "cell-based", "details": "Homo sapiens, antiproliferative test", "outline": "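Viability read by Alamar Blue fluorescence (λEx 540, λEm 590 nm) 3-5 h after dye addition, following 72 h compound treatment at 37° C in 2% FBS RPMI-1640, ≤1% DMSO. Seeding 5*10^3 cells/well, 16-18 h attachment. Four-parameter logistic model gave IC50.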"}, "[4]": {"assay": "Chemical stability in simulated intestinal fluid (SIF)", "format": "physicochemical", "details": "SIF without enzymes, pH 6.5; 10 μm; 2 hours at 37° C.; substance amount remaining", "description": "(§2) 1) Determination of chemical stability in simulated intestinal fluid, simulated gastric fluid and human blood plasma.\n(§3) SGF concentrate without enzymes, pH=1,4 (Sigma Ireland, cat #01651) was used as simulated gastric fluid. Initial candidate solution (10 mM in DMSO) was diluted with a SGF working solution to a concentration of 10 μm (test solution). The test solution was incubated in a dry block thermostat for 2 hours at 37° C. SIF concentrate without enzymes, pH=6.5 (Sigma Ireland, cat #55331) was used as simulated intestinal fluid. Initial candidate solution (10 mM in DMSO) was diluted with a SIF working solution to a concentration of 10 μm (test solution). The test solution was incubated in a dry block thermostat for 2 hours at 37° C. HPLC with Agilent 1200 liquid chromatography system (Agilent, USA) was employed to determine peak areas of the compounds in test samples, said peak areas corresponding to the initial test time (prior to incubation) and the final test time (after incubation in a dry block thermostat for 2 hours at 37° C.). We used gradient elution (1 mL/min flow rate). Substance amount in % in a sample after thermostatting was determined.\n(§4) The stability of the compounds was estimated."}, "[5]": {"target": "T1, DM EGFR (DoubleMutantEGFR, L828R/T790M) (Homo sapiens, UniProt P00533, L858R/T790M)", "T1 construct": "purchased SignalChem", "assay": "Inhibition of DM EGFR kinase activity (ADP-Glo)", "format": "biochemical", "details": "for IC50: inhibition of kinase activity, EGFR DM (L828R/T790M); for SI, IC50(WT)/IC50(DM): selectivity index, kinase EGFR WT vs EGFR DM", "outline": "(§5)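 Luminescent ADP-Glo readout was used for both wild-type and L858R/T790M EGFR, each run 180 minutes at 37° C. Reactions used a solution of 50 μM ATP with 0.5 mg/mL peptide substrate. Four-parameter logistic curves gave IC50.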"}, "[6]": {"assay": "Chemical stability in simulated gastric fluid (SGF)", "format": "physicochemical", "details": "SGF without enzymes, pH 1,4; 10 μm; 2 hours at 37° C.; substance amount remaining", "description": "as §2, §3, §4"}, "[7]": {"target": "T2, WT EGFR (Wild-Type EGFR) (Homo sapiens, UniProt P00533)", "T2 construct": "purchased SignalChem", "assay": "Inhibition of WT EGFR kinase activity (ADP-Glo)", "format": "biochemical", "outline": "as §5"}, "[8]": {"tested_on": "H1975 (lung adenocarcinoma, DM, L828R/T790M)", "assay": "Antiproliferative activity on H1975 cells (Alamar Blue)", "format": "cell-based", "details": "for IC50: Homo sapiens, NCI-H1975, H1975 cells; for SI IC50(A549)/IC50(DM): selectivity index, A549 vs H1975 cells", "outline": "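IC50 was fitted with a four-parameter logistic model to Alamar Blue fluorescence (540/590 nm), read 3-5 h after dye addition. Before that, compounds acted on attached H1975 cells, 15*10^3 per well in 2% FBS RPMI-1640, for 72 h at 37 °C, DMSO no more than 1%.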"}, "[9]": {"tested_on": "HCC827 (lung adenocarcinoma, SM, exon19delE746-A750)", "assay": "Antiproliferative activity on HCC827 cells (Alamar Blue)", "format": "cell-based", "details": "Homo sapiens, antiproliferative test", "description": "Antiproliferative activity of EGFR inhibitors (Tables 15 and 16) was measured in cell-based bioassay on continuous epithelial cell cultures: A549 (lung adenocarcinoma, ATCC® CRM-CCL-185™—WT), HCC827 (lung adenocarcinoma, ATCC® CRL-2868™—SM (SingleMutantEGFR, exon19delE746-A750)) and H1975 (lung adenocarcinoma, ATCC® CRL-5908™—DM (DoubleMutantEGFR, L828R/T790M)) using cell viability reagent Alamar Blue (ThermoFisher, # DAL1100). Cells were cultured in 10% FBS-supplemented (Gibco, #16140071) RPMI-1640 (PanEco, S330p) for at least 1 passage after thawing, washed with PBS and passaged in 96-well culture plates (3599, Corning) with RPMI-1640 growth medium supplemented with 2% FBS in an amount of 5*10^3 cells/well for A549, 10*10^3 cells/well for HCC827 and 15*10^3 cells/well for H1975 in 100 μL, and incubated at 37° C. in an incubator (Thermo Forma, USA) under 5% of CO2 for 16-18 h for cell attachment.\nThe test compounds were dissolved in DMSO in the selected range of concentrations and transferred to RPMI-1640 medium (PanEco, S330p) supplemented with 2% FBS. After adding 50 μl of the prepared dilutions to the cells, the incubation mixture contained the final concentrations of the test substances and no more than 1% DMSO. The plates were Incubated at 37° C. for 72 h. After incubation, 15 μl of Alamar Blue vital dye (ThermoFisher, # DAL1100) was added to each well. The plates were shaken on an orbital shaker (Biosan, Latvia) and further incubated for 3-5 h in a CO2 incubator (Thermo Forma, USA). Number of living cells was estimated using a plate spectrophotometer Infinite M200Pro, (Tecan, Switzerland) measuring fluorescent signal at the excitation wavelength (λEx) of 540 nm and emission wavelength (λEm) of 590 nm.\nIC50 was calculated using Magellan 7.2 software (Tecan, Switzerland) approximating experimental points by four-parameter logistic model with the optimization by Levenberg-Marquardt."}, "[10]": {"assay": "Chemical stability in human blood plasma", "format": "in vitro ADME", "details": "pooled human blood plasma; 10 μm; 4 hours at 37° C.; substance amount remaining", "outline": "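Percent of parent remaining was derived by comparing HPLC peak areas at time zero and after 4 h at 37 °C. Test compound was at 10 μM in human plasma pooled from ten donors, and proteins were precipitated with acetonitrile before analysis.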"}, "[11]": {"assay": "Enzyme stability in human liver S9 fractions", "format": "in vitro ADME", "details": "0.5 mg/mL pooled human liver S9 fractions; 10 μM compound; 37° C.; pH 7.4; read-out: Stability in liver S9 fractions, Clint", "outline": "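Compound at 10 μM was incubated at 37 °C with 0.5 mg/mL pooled human liver S9, 2 mM β-NAD and 4 mM MgCl2 in 0.1 M sodium phosphate, pH 7.4, then quenched with acetonitrile and analysed chromatographically. T½ and CLint were derived from the slope of log peak area versus time.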"}, "[12]": {"details": "average values obtained in several tests, Table 16, read-out: H1975 (DM) IC50"}, "[13]": {"details": "antiproliferative test, Table 15, read-out: IC50 H1975 (DM)"}},
  "note": "Where two headings read alike, the source gives them in different places.",
  "data": [
    {"compound": "C=CC(=O)Nc1cc(Nc2cc(C(=O)c3ccc(N4CCOCC4)cc3)ccn2)c(OC)cc1N(C)CCN(C)C.O=C(O)C(F)(F)F", "note": "[EGFR_3365_5, N-(2-((2-(dimethylamino)ethyl)(methyl)amino)-4-methoxy-5-((4-(4-morpholinobenzoyl)pyridin-2-yl)amino)phenyl)acrylamide 2,2,2-trifluoroacetate]", "values": [
      {"measurement": "CC50 at 72 h", "setting": "[1]", "value": 17700, "unit": "nM"},
      {"measurement": "TI, CC50/IC50", "setting": "[2]", "value": 309},
      {"measurement": "IC50", "setting": "[3]", "value": 7590, "unit": "nM"},
      {"measurement": "Stability in SIF, %", "setting": "[4]", "value": 89.8, "unit": "%"},
      {"measurement": "IC50", "setting": "[5]", "value": 22, "unit": "nM"},
      {"measurement": "SI, IC50(WT)/IC50(DM)", "setting": "[5]", "value": 21.03},
      {"measurement": "Stability in SGF, %", "setting": "[6]", "value": 100.0, "unit": "%"},
      {"measurement": "IC50", "setting": "[7]", "value": 464, "unit": "nM"},
      {"measurement": "IC50", "setting": "[8]; [12]", "value": 57.3, "unit": "nM"},
      {"measurement": "IC50", "setting": "[8]; [13]", "value": 57.3, "unit": "nM"},
      {"measurement": "SI IC50(A549)/IC50(DM)", "setting": "[8]", "value": 132.56},
      {"measurement": "IC50", "setting": "[9]", "value": 28.6, "unit": "nM"}
    ]},
    {"compound": "C=CC(=O)Nc1cc(Nc2nccc(C(=O)c3ccccc3[N+](=O)[O-])n2)c(OC)cc1N(C)CCN(C)C", "note": "[EGFR_3365_36, N-(2-((2-(dimethylamino)ethyl)(methyl)amino)-4-methoxy-5-((4-(2-nitrobenzoyl)pyrimidin-2-yl)amino)phenyl)acrylamide]", "values": [
      {"measurement": "CC50 at 72 h", "setting": "[1]", "value": 36500, "unit": "nM"},
      {"measurement": "TI, CC50/IC50", "setting": "[2]", "value": 199},
      {"measurement": "IC50", "setting": "[3]", "value": 73900, "unit": "nM"},
      {"measurement": "Stability in SIF, %", "setting": "[4]", "value": 100.0, "unit": "%"},
      {"measurement": "IC50", "setting": "[5]", "value": 18.9, "unit": "nM"},
      {"measurement": "SI, IC50(WT)/IC50(DM)", "setting": "[5]", "value": 19.05},
      {"measurement": "Stability in SGF, %", "setting": "[6]", "value": 100.0, "unit": "%"},
      {"measurement": "IC50", "setting": "[7]", "value": 360, "unit": "nM"},
      {"measurement": "IC50", "setting": "[8]; [12]", "value": 184, "unit": "nM"},
      {"measurement": "IC50", "setting": "[8]; [13]", "value": 184, "unit": "nM"},
      {"measurement": "SI IC50(A549)/IC50(DM)", "setting": "[8]", "value": 402.37},
      {"measurement": "Stability in blood plasma, %", "setting": "[10]", "value": 98.5, "unit": "%"}
    ]},
    {"compound": "C=CC(=O)Nc1cc(Nc2cc(C(=O)c3ccc(C)cc3)ccn2)c(OC)cc1N(C)CCN(C)C", "note": "[EGFR_3365_57, N-(2-((2-(dimethylamino)ethyl)(methyl)amino)-4-methoxy-5-((4-(4-methylbenzoyl)pyridin-2-yl)amino)phenyl)acrylamide]", "values": [
      {"measurement": "CC50 at 72 h", "setting": "[1]", "value": 22800, "unit": "nM"},
      {"measurement": "TI, CC50/IC50", "setting": "[2]", "value": 328},
      {"measurement": "IC50", "setting": "[3]", "value": 8640, "unit": "nM"},
      {"measurement": "Stability in SIF, %", "setting": "[4]", "value": 96.6, "unit": "%"},
      {"measurement": "IC50", "setting": "[5]", "value": 6.24, "unit": "nM"},
      {"measurement": "SI, IC50(WT)/IC50(DM)", "setting": "[5]", "value": 7.96},
      {"measurement": "Stability in SGF, %", "setting": "[6]", "value": 100.0, "unit": "%"},
      {"measurement": "IC50", "setting": "[7]", "value": 49.7, "unit": "nM"},
      {"measurement": "IC50", "setting": "[8]; [12]", "value": 69.4, "unit": "nM"},
      {"measurement": "IC50", "setting": "[8]; [13]", "value": 69.4, "unit": "nM"},
      {"measurement": "SI IC50(A549)/IC50(DM)", "setting": "[8]", "value": 124},
      {"measurement": "IC50", "setting": "[9]", "value": 5.64, "unit": "nM"}
    ]},
    {"compound": "C=CC(=O)Nc1cc(Nc2nccc(C(=O)c3ccc(C)cc3)n2)c(OC)cc1N(C)CCN(C)C", "note": "[EGFR_3365_64, N-(2-((2-(dimethylamino)ethyl)(methyl)amino)-4-methoxy-5-((4-(4-methylbenzoyl)pyrimidin-2-yl)amino)phenyl)acrylamide]", "values": [
      {"measurement": "Stability in SIF, %", "setting": "[4]", "value": 100.0, "unit": "%"},
      {"measurement": "Stability in SGF, %", "setting": "[6]", "value": 100.0, "unit": "%"},
      {"measurement": "Stability in blood plasma, %", "setting": "[10]", "value": 87.2, "unit": "%"},
      {"measurement": "Intrinsic clearance in human liver S9 fractions at 10 µM", "setting": "[11]", "value": 16.6, "unit": "µL/min/mg"}
    ]}
  ]
}
